# From article PMC5218480 (PLoS ONE, 2017)
# Tested on: MV-4-11 cells
# Test: Gene expression microarray analysis (Affymetrix PrimeView) and GSEA
# Format: cell-based, human
# Set-up: RFU PODN (11730768_x_at) / Fold change /veh PODN (11730768_x_at) / RFU LINC00158 (11744669_a_at) / Fold change /veh LINC00158 (11744669_a_at) / RFU DUSP10 (11751237_a_at) / Fold change /veh DUSP10 (11751237_a_at) / RFU ID3 (11757404_x_at) / Fold change /veh ID3 (11757404_x_at) / RFU PLEKHG5 (11737974_s_at) / Fold change /veh PLEKHG5 (11737974_s_at) / RFU LRRC4B (11730491_at) / Fold change /veh LRRC4B (11730491_at) / RFU GIMAP4 (11747438_a_at) / Fold change /veh GIMAP4 (11747438_a_at) / RFU KRT8 (11758183_x_at) / Fold change /veh KRT8 (11758183_x_at) / RFU CNN1 (11734310_a_at) / Fold change /veh CNN1 (11734310_a_at) / RFU VPS37D (11726825_at) / Fold change /veh VPS37D (11726825_at) / RFU C10orf10 (11716522_x_at) / Fold change /veh C10orf10 (11716522_x_at) / RFU KIR2DL2 /// KIR2DL4 /// KIR2DL5A /// KIR2DL5B /// KIR2DS1 /// KIR2DS2 /// KIR2DS3 /// KIR2DS4 /// KIR3DL3 /// KIR3DL3 /// KIR3DS1 (11738374_at) / Fold change /veh KIR2DL2 /// KIR2DL4 /// KIR2DL5A /// KIR2DL5B /// KIR2DS1 /// KIR2DS2 /// KIR2DS3 /// KIR2DS4 /// KIR3DL3 /// KIR3DL3 /// KIR3DS1 (11738374_at) / RFU C1QL1 (11718748_at) / Fold change /veh C1QL1 (11718748_at) / RFU TMPRSS4 (11747572_a_at) / Fold change /veh TMPRSS4 (11747572_a_at) / RFU HAMP (11756126_x_at) / Fold change /veh HAMP (11756126_x_at) / RFU RNFT2 (11725882_a_at) / Fold change /veh RNFT2 (11725882_a_at) / RFU NR4A2 (11747474_a_at) / Fold change /veh NR4A2 (11747474_a_at) / RFU ABCC12 (11746883_a_at) / Fold change /veh ABCC12 (11746883_a_at) / RFU TMEM136 (11760407_x_at) / Fold change /veh TMEM136 (11760407_x_at) / RFU CLDN22 /// WWC2 (11732394_at) / Fold change /veh CLDN22 /// WWC2 (11732394_at) / RFU HLA-DPB1 (11760878_x_at) / Fold change /veh HLA-DPB1 (11760878_x_at) / RFU SPINT1 (11716480_a_at) / Fold change /veh SPINT1 (11716480_a_at) / RFU GAP43 (11754022_s_at) / Fold change /veh GAP43 (11754022_s_at) / RFU A4GNT (11735810_at) / Fold change /veh A4GNT (11735810_at) / RFU PRB3 (11715151_x_at) / Fold change /veh PRB3 (11715151_x_at) / RFU TUBB4B (11761932_at) / Fold change /veh TUBB4B (11761932_at) / RFU CAPN14 (11732068_a_at) / Fold change /veh CAPN14 (11732068_a_at) / RFU TMCC2 (11721928_a_at) / Fold change /veh TMCC2 (11721928_a_at) / RFU IRGQ (11745062_a_at) / Fold change /veh IRGQ (11745062_a_at) / RFU FAM174B (11720279_a_at) / Fold change /veh FAM174B (11720279_a_at) / RFU TMPRSS4 (11748680_a_at) / Fold change /veh TMPRSS4 (11748680_a_at) / RFU FAM212B (11763350_a_at) / Fold change /veh FAM212B (11763350_a_at) / RFU PLEKHG5 (11743358_a_at) / Fold change /veh PLEKHG5 (11743358_a_at) / RFU ZSCAN30 (11745921_a_at) / Fold change /veh ZSCAN30 (11745921_a_at) / RFU CMKLR1 (11741424_a_at) / Fold change /veh CMKLR1 (11741424_a_at) / RFU LOC101060620 /// MAPK8IP1 (11723275_at) / Fold change /veh LOC101060620 /// MAPK8IP1 (11723275_at) / RFU SPTSSB (11747773_x_at) / Fold change /veh SPTSSB (11747773_x_at) / RFU PRSS12 (11739890_at) / Fold change /veh PRSS12 (11739890_at) / RFU BIN1 (11741810_x_at) / Fold change /veh BIN1 (11741810_x_at) / RFU WNT11 (11732464_a_at) / Fold change /veh WNT11 (11732464_a_at) / RFU C10orf10 (11716521_a_at) / Fold change /veh C10orf10 (11716521_a_at) / RFU C5orf56 (11738089_at) / Fold change /veh C5orf56 (11738089_at) / RFU CYB561 (11721691_x_at) / Fold change /veh CYB561 (11721691_x_at) / RFU ANKRD19P (11752326_a_at) / Fold change /veh ANKRD19P (11752326_a_at) / RFU OR2T12 /// OR2T33 /// OR2T8 (11738714_s_at) / Fold change /veh OR2T12 /// OR2T33 /// OR2T8 (11738714_s_at) / RFU VCAN (11748164_a_at) / Fold change /veh VCAN (11748164_a_at) / RFU JSRP1 (11732532_at) / Fold change /veh JSRP1 (11732532_at) / RFU KRTAP10-11 (11738290_x_at) / Fold change /veh KRTAP10-11 (11738290_x_at) / RFU MYO3A (11730013_a_at) / Fold change /veh MYO3A (11730013_a_at) / RFU EBF3 (11725865_a_at) / Fold change /veh EBF3 (11725865_a_at) / RFU CAMK2N1 (11719241_x_at) / Fold change /veh CAMK2N1 (11719241_x_at) / RFU C5orf56 (11738088_a_at) / Fold change /veh C5orf56 (11738088_a_at) / RFU OLFML3 (11715873_a_at) / Fold change /veh OLFML3 (11715873_a_at) / RFU LOC100653217 /// NTM (11731650_a_at) / Fold change /veh LOC100653217 /// NTM (11731650_a_at) / RFU MAPK11 (11762145_a_at) / Fold change /veh MAPK11 (11762145_a_at) / RFU FIZ1 (11724087_x_at) / Fold change /veh FIZ1 (11724087_x_at) / RFU OASL (11726364_x_at) / Fold change /veh OASL (11726364_x_at) / RFU SOX15 (11748057_x_at) / Fold change /veh SOX15 (11748057_x_at) / RFU CD79A (11719716_a_at) / Fold change /veh CD79A (11719716_a_at) / RFU HIST1H1D (11736915_at) / Fold change /veh HIST1H1D (11736915_at) / RFU CASKIN2 (11723855_a_at) / Fold change /veh CASKIN2 (11723855_a_at) / RFU LOC730098 (11760151_x_at) / Fold change /veh LOC730098 (11760151_x_at) / RFU OR4N2 (11742367_at) / Fold change /veh OR4N2 (11742367_at) / RFU PRRT2 (11749266_a_at) / Fold change /veh PRRT2 (11749266_a_at) / RFU SNX32 (11753110_a_at) / Fold change /veh SNX32 (11753110_a_at) / RFU CDHR5 (11726645_a_at) / Fold change /veh CDHR5 (11726645_a_at) / RFU RCAN1 (11760418_a_at) / Fold change /veh RCAN1 (11760418_a_at) / RFU FAM167A (11723789_a_at) / Fold change /veh FAM167A (11723789_a_at) / RFU FAM26E (11764081_at) / Fold change /veh FAM26E (11764081_at) / RFU ISYNA1 (11749810_s_at) / Fold change /veh ISYNA1 (11749810_s_at) / RFU ACY1 (11761880_at) / Fold change /veh ACY1 (11761880_at) / RFU 11764098_at / Fold change /veh 11764098_at / RFU SAMD14 (11745864_x_at) / Fold change /veh SAMD14 (11745864_x_at) / RFU NPB (11741838_a_at) / Fold change /veh NPB (11741838_a_at) / RFU TMPRSS6 (11731388_a_at) / Fold change /veh TMPRSS6 (11731388_a_at) / RFU KRTAP10-2 (11738614_at) / Fold change /veh KRTAP10-2 (11738614_at) / RFU ARHGAP8 /// PRR5-ARHGAP8 (11727945_x_at) / Fold change /veh ARHGAP8 /// PRR5-ARHGAP8 (11727945_x_at) / RFU KRTAP5-7 /// NADSYN1 (11734609_at) / Fold change /veh KRTAP5-7 /// NADSYN1 (11734609_at) / RFU RASL12 (11751679_a_at) / Fold change /veh RASL12 (11751679_a_at) / RFU CDKN2B (11736163_a_at) / Fold change /veh CDKN2B (11736163_a_at) / RFU PRF1 (11729649_at) / Fold change /veh PRF1 (11729649_at) / RFU, ZNF638 /// ZNF638-IT1 / Fold change vs veh, ZNF638 /// ZNF638-IT1 / RFU, PANK3 / Fold change vs veh, PANK3 / RFU, SH3YL1 / Fold change vs veh, SH3YL1 / RFU, ZEB2 / Fold change vs veh, ZEB2 / RFU, NRIP1 / Fold change vs veh, NRIP1 / RFU, PTTG1IP / Fold change vs veh, PTTG1IP / RFU, CAPN2 / Fold change vs veh, CAPN2 / RFU, MED14 / Fold change vs veh, MED14 / RFU, SNORA58 / Fold change vs veh, SNORA58 / RFU, C1orf63 / Fold change vs veh, C1orf63 / RFU, LRRFIP1 / Fold change vs veh, LRRFIP1 / RFU, NDUFAF7 / Fold change vs veh, NDUFAF7 / RFU, SLC12A2 / Fold change vs veh, SLC12A2 / RFU, IBTK / Fold change vs veh, IBTK / RFU, ESF1 / Fold change vs veh, ESF1 / Fold change vs veh, TMEM50B / RFU, TAOK1 / Fold change vs veh, TAOK1 / RFU, ACBD3 / Fold change vs veh, ACBD3 / RFU, TMA16 / Fold change vs veh, TMA16 / RFU, RWDD3 / Fold change vs veh, RWDD3 / RFU, BCAT1 / Fold change vs veh, BCAT1 / RFU, EDEM3 / Fold change vs veh, EDEM3 / RFU, TMEM33 / Fold change vs veh, TMEM33 / RFU, WDR75 / Fold change vs veh, WDR75 / RFU, AHCTF1 / Fold change vs veh, AHCTF1 / RFU, TFRC / Fold change vs veh, TFRC / RFU, ZDHHC17 / Fold change vs veh, ZDHHC17 / RFU, NOM1 / Fold change vs veh, NOM1 / RFU, ARL8B / Fold change vs veh, ARL8B / RFU, ZBTB11 / Fold change vs veh, ZBTB11 / RFU, TAMM41 / Fold change vs veh, TAMM41 / RFU, KIAA1704 /// LOC100996395 / Fold change vs veh, KIAA1704 /// LOC100996395 / RFU, ING1 / Fold change vs veh, ING1 / RFU, TRMT61B / Fold change vs veh, TRMT61B / RFU, FUBP3 / Fold change vs veh, FUBP3 / RFU, TP53 / Fold change vs veh, TP53 / RFU, TNKS2 / Fold change vs veh, TNKS2 / RFU, ZFP14 / Fold change vs veh, ZFP14 / RFU, ACTR2 / Fold change vs veh, ACTR2 / RFU, PPP3R1 / Fold change vs veh, PPP3R1 / RFU, PIK3R1 / Fold change vs veh, PIK3R1 / RFU, HNRNPA1 / Fold change vs veh, HNRNPA1 / RFU, RNF170 / Fold change vs veh, RNF170 / RFU, ZNF28 / Fold change vs veh, ZNF28 / RFU, RNGTT / Fold change vs veh, RNGTT / RFU, OGT / Fold change vs veh, OGT / RFU, BRD1 / Fold change vs veh, BRD1 / RFU, MARS / Fold change vs veh, MARS / RFU, ZNF655 / Fold change vs veh, ZNF655 / RFU, FAHD1 / Fold change vs veh, FAHD1 / RFU, BDP1 / Fold change vs veh, BDP1 / RFU, LRRCC1 / Fold change vs veh, LRRCC1 / RFU, ARID1A / Fold change vs veh, ARID1A / RFU, ZNF146 / Fold change vs veh, ZNF146 / RFU, ZNF330 / Fold change vs veh, ZNF330 / RFU, GPN3 / Fold change vs veh, GPN3 / RFU, C9orf123 / Fold change vs veh, C9orf123 / RFU, N4BP2L2 / Fold change vs veh, N4BP2L2 / RFU, ARFIP1 / Fold change vs veh, ARFIP1 / RFU, FAM179B / Fold change vs veh, FAM179B / RFU, BCL10 / Fold change vs veh, BCL10 / RFU, UHRF1BP1L / Fold change vs veh, UHRF1BP1L / RFU, BET1 / Fold change vs veh, BET1 / RFU, CNOT2 / Fold change vs veh, CNOT2 / RFU, ZNF268 / Fold change vs veh, ZNF268 / Fold change vs veh, ZNF507 / RFU, DGCR2 / Fold change vs veh, DGCR2 / RFU, WDSUB1 / Fold change vs veh, WDSUB1 / Fold change vs veh, HSP90B1 /// MIR3652 / RFU, ADSS / Fold change vs veh, ADSS / RFU, GK / Fold change vs veh, GK / RFU, ZNF148 / Fold change vs veh, ZNF148 / RFU, TAF9 / Fold change vs veh, TAF9 / RFU, SLC1A5 / Fold change vs veh, SLC1A5 / RFU, SLMO2 / Fold change vs veh, SLMO2 / RFU, ABCC4 / Fold change vs veh, ABCC4 / RFU, LOC101060439 /// RAP1B / Fold change vs veh, LOC101060439 /// RAP1B / RFU, RFX7 / Fold change vs veh, RFX7 / RFU, GTPBP10 / Fold change vs veh, GTPBP10 / RFU, CNEP1R1 / Fold change vs veh, CNEP1R1 / RFU, BIVM-ERCC5 /// ERCC5 / Fold change vs veh, BIVM-ERCC5 /// ERCC5 / RFU, ILF3 / Fold change vs veh, ILF3 / RFU 11762660_at / Fold change /veh 11762660_at / RFU VCAN (11757783_s_at) / Fold change /veh VCAN (11757783_s_at) / RFU DDX43 (11728927_at) / Fold change /veh DDX43 (11728927_at) / RFU KRT8 (11758188_x_at) / Fold change /veh KRT8 (11758188_x_at) / RFU NKD1 (11759106_at) / Fold change /veh NKD1 (11759106_at) / RFU SRD5A1 (11742802_a_at) / Fold change /veh SRD5A1 (11742802_a_at) / RFU TPSAB1 /// TPSB2 (11721975_s_at) / Fold change /veh TPSAB1 /// TPSB2 (11721975_s_at) / RFU GSTM3 (11746129_a_at) / Fold change /veh GSTM3 (11746129_a_at) / RFU IL23R (11737362_x_at) / Fold change /veh IL23R (11737362_x_at) / RFU TMEM51 (11727254_a_at) / Fold change /veh TMEM51 (11727254_a_at) / RFU PIWIL2 (11732686_x_at) / Fold change /veh PIWIL2 (11732686_x_at) / RFU ORM1 (11744905_x_at) / Fold change /veh ORM1 (11744905_x_at) / RFU CCDC152 (11743942_at) / Fold change /veh CCDC152 (11743942_at) / RFU ECM1 (11717891_a_at) / Fold change /veh ECM1 (11717891_a_at) / RFU IL23R (11748794_a_at) / Fold change /veh IL23R (11748794_a_at) / RFU TNFAIP8L3 (11732012_x_at) / Fold change /veh TNFAIP8L3 (11732012_x_at) / RFU MBOAT4 (11741988_at) / Fold change /veh MBOAT4 (11741988_at) / RFU 11764193_at / Fold change /veh 11764193_at / RFU TMEM53 (11763286_at) / Fold change /veh TMEM53 (11763286_at) / RFU MAGEB2 (11727129_at) / Fold change /veh MAGEB2 (11727129_at) / RFU TMEM200A (11744735_a_at) / Fold change /veh TMEM200A (11744735_a_at) / RFU CCDC152 (11751479_a_at) / Fold change /veh CCDC152 (11751479_a_at) / RFU FAM211A (11726209_a_at) / Fold change /veh FAM211A (11726209_a_at) / RFU RGS16 (11746705_a_at) / Fold change /veh RGS16 (11746705_a_at) / RFU VCAN (11755009_s_at) / Fold change /veh VCAN (11755009_s_at) / RFU RHOB (11743442_s_at) / Fold change /veh RHOB (11743442_s_at) / RFU RGS16 (11720943_a_at) / Fold change /veh RGS16 (11720943_a_at) / RFU RGS16 (11720944_at) / Fold change /veh RGS16 (11720944_at) / RFU, VPS4B / Fold change vs veh, VPS4B / RFU, CREB1 / Fold change vs veh, CREB1 / RFU, DNAJC13 / Fold change vs veh, DNAJC13 / RFU, GNAQ / Fold change vs veh, GNAQ / RFU, CDK5R1 / Fold change vs veh, CDK5R1 / RFU, ZRANB3 / Fold change vs veh, ZRANB3 / RFU, CUL4A / Fold change vs veh, CUL4A / RFU, CCNY / Fold change vs veh, CCNY / RFU, UFL1 / Fold change vs veh, UFL1 / RFU, COG3 / Fold change vs veh, COG3 / RFU, DIAPH2 / Fold change vs veh, DIAPH2 / RFU, SKA2 / Fold change vs veh, SKA2 / RFU, AFF3 / Fold change vs veh, AFF3 / RFU, LMF1 / Fold change vs veh, LMF1 / RFU, IPO11 / Fold change vs veh, IPO11 / RFU, DFFB / Fold change vs veh, DFFB / RFU, FOXP1 / Fold change vs veh, FOXP1 / RFU, CARD8 / Fold change vs veh, CARD8 / RFU, STRN3 / Fold change vs veh, STRN3 / RFU, ADK / Fold change vs veh, ADK / RFU, RASSF2 / Fold change vs veh, RASSF2 / RFU, WIPF1 / Fold change vs veh, WIPF1 / RFU, LARP1B / Fold change vs veh, LARP1B / RFU, RASA1 / Fold change vs veh, RASA1 / RFU, RB1 / Fold change vs veh, RB1 / RFU, PPFIA1 / Fold change vs veh, PPFIA1 / RFU, MAT2A / Fold change vs veh, MAT2A / RFU, CCT5 / Fold change vs veh, CCT5 / RFU, WDR92 / Fold change vs veh, WDR92 / RFU, CUX1 / Fold change vs veh, CUX1 / RFU, TTC7A / Fold change vs veh, TTC7A / RFU, TMEM135 / Fold change vs veh, TMEM135 / RFU, DEPTOR / Fold change vs veh, DEPTOR / RFU, CPM / Fold change vs veh, CPM / RFU, DNAJB6 / Fold change vs veh, DNAJB6 / RFU, CACNA2D3 / Fold change vs veh, CACNA2D3 / RFU, DTX4 / Fold change vs veh, DTX4 / RFU, TFCP2 / Fold change vs veh, TFCP2 / RFU, GMCL1 /// GMCL1P1 / Fold change vs veh, GMCL1 /// GMCL1P1 / RFU, AEBP2 / Fold change vs veh, AEBP2 / RFU, SNHG1 /// SNORD22 /// SNORD25 /// SNORD26 /// SNORD27 /// SNORD28 /// SNORD29 /// SNORD31 / Fold change vs veh, SNHG1 /// SNORD22 /// SNORD25 /// SNORD26 /// SNORD27 /// SNORD28 /// SNORD29 /// SNORD31 / Fold change (Aza/veh), C12orf56 (ProbeSet 11735607_a_at) / Fold change (ACY-1035/veh), C12orf56 (ProbeSet 11735607_a_at) / Fold change (Aza/veh), FGFR1OP (ProbeSet 11751329_s_at) / Fold change (ACY-1035/veh), FGFR1OP (ProbeSet 11751329_s_at) / Fold change (Aza/veh), VPS36 (ProbeSet 11739960_a_at) / Fold change (ACY-1035/veh), VPS36 (ProbeSet 11739960_a_at) / RFU SYPL1 (11715823_x_at) / Fold change /veh SYPL1 (11715823_x_at) / RFU IGFBP7 (11715501_s_at) / Fold change /veh IGFBP7 (11715501_s_at) / RFU REEP3 (11722064_at) / Fold change /veh REEP3 (11722064_at) / RFU IGLL1 (11728026_x_at) / Fold change /veh IGLL1 (11728026_x_at): dose or concentration left out as unconfirmed
# Conditions: MV-4-11 cells, 48 hours
smiles,measurement,value
Nc1ccc(-c2cccs2)cc1NC(=O)c1ccc2c(c1)cc(C1CC1)n2CCN1CCOCC1 [ACY-1035],Fold change /veh DUSP10 (11751237_a_at),1.17
